Laboratory results published in patent US9796753B2, “N-substituted indenoisoquinolines and syntheses thereof” (Purdue Research Foundation, priority 2005, dated 2017).
Like-named read-outs stand apart in the source and are kept apart here.

Experiments:
Human recombinant Top1 = target: T1, Human recombinant Top1 (Homo sapiens, UniProt P11387); assay: Topoisomerase 1-mediated DNA cleavage reactions (B), 117-bp DNA oligonucleotide; format: biochemical; set-up: key to Top1 inhibitory activity (level): 0, no detectable activity; +, weak activity; ++, similar activity to compound 33; +++, greater activity than 33; ++++, equipotent to 32; Ambiguous scores (e.g., between two values) are designated with parentheses (e.g., ++(+) would be between ++ and +++); key to Top1 (compound-induced DNA cleavage due to Top1 inhibition): 0, no detectable activity; +, weak activity; ++, similar activity to compound 5; +++, greater activity than 34; ++++ , equipotent to 32; The (+) ranking indicates the activity lies between two given values; conditions: Table 5; for Top1 inhibitory activity (level): relative to compounds 32 and 33; for Top1 (compound-induced DNA cleavage due to Top1 inhibition): semiquantitative scale relative to 1 μM camptothecin (32) or MJ-III-65 (34)
T1 construct: made in house
T1 sequence (P11387 1-765): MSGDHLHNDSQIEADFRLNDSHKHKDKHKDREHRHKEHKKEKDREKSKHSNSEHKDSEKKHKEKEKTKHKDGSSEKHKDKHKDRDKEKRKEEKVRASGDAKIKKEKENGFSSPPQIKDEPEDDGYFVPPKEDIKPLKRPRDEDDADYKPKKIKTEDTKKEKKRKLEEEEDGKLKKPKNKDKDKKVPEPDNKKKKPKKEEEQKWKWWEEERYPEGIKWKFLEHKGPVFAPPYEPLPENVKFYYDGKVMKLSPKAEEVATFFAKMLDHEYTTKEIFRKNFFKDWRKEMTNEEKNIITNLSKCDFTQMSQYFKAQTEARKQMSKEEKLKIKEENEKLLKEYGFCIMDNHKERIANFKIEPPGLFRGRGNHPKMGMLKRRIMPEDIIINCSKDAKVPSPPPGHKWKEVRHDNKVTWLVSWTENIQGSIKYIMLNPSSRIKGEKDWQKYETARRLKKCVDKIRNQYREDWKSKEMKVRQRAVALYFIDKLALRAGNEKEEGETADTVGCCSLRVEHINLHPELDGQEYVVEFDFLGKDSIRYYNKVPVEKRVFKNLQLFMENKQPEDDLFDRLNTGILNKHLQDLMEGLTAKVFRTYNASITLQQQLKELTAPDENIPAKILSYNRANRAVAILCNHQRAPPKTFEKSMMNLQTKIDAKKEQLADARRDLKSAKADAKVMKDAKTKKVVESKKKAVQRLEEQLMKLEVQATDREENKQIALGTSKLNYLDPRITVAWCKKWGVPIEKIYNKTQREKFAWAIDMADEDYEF
Method: Human recombinant Top1 was purified from baculovirus as described in Bailly, C. Curr. Med. Chem. 2000, 7, 39-58. DNA cleavage reactions were prepared as previously reported with the exception of the DNA substrate in Saltz, et al. Oncologist 1997, 2, 402-409.
Approximately 2 nM radiolabeled DNA substrate was incubated with recombinant Top1 in 20 μL of reaction buffer [10 mM Tris-HCl (pH 7.5), 50 mM KCl, 5 mM MgCl2, 0.1 mM EDTA, and 15 μg/mL BSA] at 25° C. for 20 min in the presence of various concentrations of compounds. […] Aliquots of each reaction mixture were subjected to 20% denaturing PAGE. Gels were dried and visualized using a phosphoimager and ImageQuant software (Molecular Dynamics).
All of the new indenoisoquinoline derivatives with C-2 side chains were tested in Top1-mediated DNA cleavage assays. For this purpose, a ^32P 3′-end labeled 117-bp DNA fragment was incubated with Top1 and four 10-fold dilutions starting from 100 μM of a tested compound. The DNA fragments were separated on 20% PAGE denaturing gels. The Top1 inhibitory activities were assigned on the basis of the visual inspection of the number and intensities of the gel bands corresponding to Top1-mediated DNA cleavage fragments. […] Ambiguous scores (e.g., between two values) are designated with parentheses (e.g., ++(+) would be between ++ and +++).

recombinant TDP1 = recombinant TDP1 (Homo sapiens, UniProt Q9NUW8); assay: Gel-based assay measuring the inhibition of recombinant TDP1; format: biochemical
Method: A 5′-[^32P]-labeled single-stranded DNA oligonucleotide containing a 3′-phosphotyrosine (N14Y) was generated as described by Dexheimer et al. (J. Med. Chem. 2009, 52, 7122-7131). The DNA substrate was then incubated with 5 μM recombinant TDP1 in the absence or presence of inhibitor for 15 min at room temperature in a buffer containing 50 mM Tris HCl, pH 7.5, 80 mM KCl, 2 mM EDTA, 1 mM DTT, 40 μg/ml BSA and 0.01% Tween-20. Reactions were terminated by the addition of 1 volume of gel loading buffer [99.5% (v/v) formamide, 5 mM EDTA, 0.01% (w/v) xylene cyanol, and 0.01% (w/v) bromophenol blue]. Samples were subjected to a 16% denaturing PAGE and gels were exposed after drying to a PhosphorImager screen (GE Healthcare). Gel images were scanned using a Typhoon 8600 (GE Healthcare) and densitometric analyses were performed using the ImageQuant software (GE Healthcare).
The TDP1 inhibitory activities of the O-2-substituted indenoisoquinolines were measured by determining their abilities to inhibit the hydrolysis of the phosphodiester linkage between tyrosine and the 3′-end of a DNA oligonucleotide substrate and thus prevent the generation of an oligonucleotide with a free 3′-phosphate (N14P, Scheme 13). Therefore, the disappearance of the gel band for N14P indicates TDP1 inhibition.
Tyrosyl-DNA phosphodiesterase 1 (TDP1) is a DNA repair enzyme that repairs cytotoxic DNA damage induced by Top1 inhibitors.

[1] = tested on: all human cancer cell lines successfully tested; assay: NCI screen mean graph midpoint (MGM) for growth inhibition; format: cell-based; conditions: Homo sapiens; read-out: MGM GI50
Method in brief: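 NCI60 panel cells exposed to compound at 100, 10, 1, 0.1 and 0.01 μM for 48 h, then sulforhodamine B staining. Percentage growth versus control plotted against log concentration; MGM is the midpoint across all lines tested.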

[2] = Table 5, determined in duplicate, read-out: TDP1 (IC50, semiquantitative scale)
[3] = Table 5, determined in duplicate, read-out: TDP1 inhibitory activity (potency score)
[4] = Table 7, scores correspond to IC50 ranges, read-out: TDP1 inhibition

Chain of recombinant TDP1 (Q9NUW8 whole entry): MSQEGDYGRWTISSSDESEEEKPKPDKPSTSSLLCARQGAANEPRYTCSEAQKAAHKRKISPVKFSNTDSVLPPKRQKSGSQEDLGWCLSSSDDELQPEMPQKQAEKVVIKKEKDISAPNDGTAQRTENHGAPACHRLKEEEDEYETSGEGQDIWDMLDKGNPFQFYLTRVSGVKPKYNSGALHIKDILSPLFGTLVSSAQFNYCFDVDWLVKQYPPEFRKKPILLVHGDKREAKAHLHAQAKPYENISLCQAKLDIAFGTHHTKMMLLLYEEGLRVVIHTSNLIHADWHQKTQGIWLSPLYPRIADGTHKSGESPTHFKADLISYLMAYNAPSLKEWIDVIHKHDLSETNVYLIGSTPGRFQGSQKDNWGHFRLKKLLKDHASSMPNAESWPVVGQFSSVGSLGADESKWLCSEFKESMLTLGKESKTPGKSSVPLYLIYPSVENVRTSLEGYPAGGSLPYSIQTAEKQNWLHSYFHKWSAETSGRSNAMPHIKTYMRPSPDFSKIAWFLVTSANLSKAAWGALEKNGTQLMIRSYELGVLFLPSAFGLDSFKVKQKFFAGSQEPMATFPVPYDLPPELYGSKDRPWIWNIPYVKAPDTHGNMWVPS

Q: For `COC1C=c2c3c([nH]c(=O)c2=CC1(CCCN1CCOCC1)OC)-c1cc2c(cc1C3=O)OCO2` (centres unmarked) [Compound 5q, 3-[(Morpholin-4-yl)-1-propyl]-5,6-dihydro-2,3-dimethoxy-8,9-methylenedioxy-5,11-dioxo-11H-indeno[1,2-c]isoquinoline], which melting point is on record?
A: 290 to 292 °C

Q: With `COC1C=c2c3c([nH]c(=O)c2=CC1(CCCN1CCSCC1)OC)-c1cc2c(cc1C3=O)OCO2` (centres unmarked) [Compound 5r, 3-[(Thiomorpholin-4-yl)-1-propyl]-5,6-dihydro-2,3-dimethoxy-8,9-methylenedioxy-5,11-dioxo-11H-indeno[1,2-c]isoquinoline] as the compound, how does the melting point read?
A: 306 to 308 °C

Q: With `COc1cc2c3c(n(CCCNCCC4COCCN4)c(=O)c2cc1OC)-c1cc2c(cc1C3=O)OCO2` (centres unmarked) [Compound 5x, 6-[(3-Morpholylethylamino)-1-propyl]-5,6-dihydro-2,3-dimethoxy-8,9-methylenedioxy-5,11-dioxo-11H-indeno[1,2-c]isoquinoline] as the compound, how does the melting point read?
A: 215 to 217 °C

Q: With `COc1cc2c(=O)n(CCCN3CCOCC3)c3c(c2cc1OCCCBr)C(=O)c1cc2c(cc1-3)OCO2` [Compound 19, 2-(3-Bromopropoxy)-3-methoxy-6-(3-morpholinopropyl)-5H-[1,3]dioxolo[4′,5′: 5,6]indeno[1,2-c]isoquinoline-5,12(6H)-dione] as the compound, how does the melting point read?
A: 197 to 199 °C

Q: Which “Top1 inhibitory activity (level)” value (Human recombinant Top1) does the source give for `COc1cc2c(=O)n(CCCN3CCOCC3)c3c(c2cc1OCCCN(C)C)C(=O)c1cc2c(cc1-3)OCO2` [Compound 23, 2-(3-(Dimethylamino)propoxy)-3-methoxy-6-(3-morpholinopropyl)-5H-[1,3]dioxolo[4′,5′:5,6]indeno[1,2-c]isoquinoline-5,12(6H)-dione] here?
A: +++

Q: What about the “Top1 (compound-induced DNA cleavage due to Top1 inhibition)” value (Human recombinant Top1) of the same compound?
A: +++

Q: And the IC50 (recombinant TDP1; [2])?
A: 12 to 37 µM

Q: And the IC50 (recombinant TDP1; [3])?
A: 12 to 37 µM

Q: With `CCNCCCOc1cc2c3c(n(CCCN4CCOCC4)c(=O)c2cc1OC)-c1cc2c(cc1C3=O)OCO2` [Compound 24, 2-(3-(Ethylamino)propoxy)-3-methoxy-6-(3-morpholinopropyl)-5H-[1,3]dioxolo [4′,5′:5,6]indeno[1,2-c]isoquinoline-5,12(6H)-dione] as the compound, how does the “Top1 inhibitory activity (level)” value (Human recombinant Top1) read?
A: +++

Q: What about the “Top1 (compound-induced DNA cleavage due to Top1 inhibition)” value (Human recombinant Top1) of the same compound?
A: +++

Q: And the IC50 (recombinant TDP1; [2])?
A: 12 to 37 µM

Q: And the IC50 (recombinant TDP1; [3])?
A: 12 to 37 µM

Q: Which results are given for `COc1cc2c(=O)n(CCCN3CCOCC3)c3c(c2cc1OCCCN1CCN(C)CC1)C(=O)c1cc2c(cc1-3)OCO2` [Compound 26, 3-Methoxy-2-(3-(4-methylpiperazin-1-yl)propoxy)-6-(3-morpholinopropyl)-5H-[1,3]dioxolo[4′,5′:5,6]indeno[1,2-c]isoquinoline-5,12(6H)-dione]?
A: Top1 inhibitory activity (level) (Human recombinant Top1): +++; Top1 (compound-induced DNA cleavage due to Top1 inhibition) (Human recombinant Top1): +++; TDP1 inhibitory activity (in words) (recombinant TDP1): no TDP1 inhibitory activity was observed; IC50 (recombinant TDP1; [2]): > 111 µM

Q: Which results are given for `COc1cc2c(=O)n(CCCN3CCOCC3)c3c(c2cc1OCC(=O)NN)C(O)c1cc2c(cc1-3)OCO2` (centres unmarked) [Compound 31, 2-((12-Hydroxy-3-methoxy-6-(3-morpholinopropyl)-5-oxo-6,12-dihydro-5H-[1,3]dioxolo[4′,5′:5,6]indeno[1,2-c]isoquinolin-2-yl)oxy)acetohydrazide]?
A: Top1 inhibitory activity (level) (Human recombinant Top1): + or ++; Top1 (compound-induced DNA cleavage due to Top1 inhibition) (Human recombinant Top1): +; IC50 (recombinant TDP1; [2]): > 111 µM

Q: Which results are given for `O=C1c2cc3c(cc2-c2c1c1ccc(F)cc1c(=O)n2CCCNCCO)OCO3` [Compound 38]?
A: GI50 [1]: 0.055 µM; IC50 (recombinant TDP1; [4]): 1 to 12 µM

Q: With `O=C1c2cc3c(cc2-c2c1c1ccc(Cl)cc1c(=O)n2CCCn1ccnc1)OCO3` [Compound 39] as the compound, how does the GI50 [1] read?
A: 0.024 µM

Q: And the IC50 (recombinant TDP1; [4])?
A: 37 to 111 µM

Q: For `O=C1c2cc3c(cc2-c2c1c1ccc(Cl)cc1c(=O)n2CCCNCCO)OCO3` [Compound 41], which GI50 [1] is on record?
A: 0.229 µM

Q: And the IC50 (recombinant TDP1; [4])?
A: 1 to 12 µM

Q: Which GI50 [1] does the source give for `O=C1c2cc3c(cc2-c2c1c1cc(F)c(F)cc1c(=O)n2CCCn1ccnc1)OCO3` [Compound 42] here?
A: 0.03 µM

Q: And the IC50 (recombinant TDP1; [4])?
A: > 111 µM

Q: For `O=C1c2cc3c(cc2-c2c1c1cc(Cl)c(Cl)cc1c(=O)n2CCCn1ccnc1)OCO3` [Compound 44], which GI50 [1] is on record?
A: 0.017 µM

Q: What about the IC50 (recombinant TDP1; [4]) of the same compound?
A: > 111 µM
